Measurements published in patent US20200289525A1, “Methods of Increasing Microbial Diversity of a Skin Microbiota” (The Procter & Gamble Company, priority 2019, published 2020).
Entries after “also recorded” stand apart in the source; their conditions may differ. Where two headings read alike, the source gives them in different places.

What was measured:
skin microbiota [1] = details: skin having atopic dermatitis, in a body wash
skin microbiota [2] = details: four-week wash period
Description: Only qualified subjects with atopic dermatitis received treatment products during the treatment phase. These qualified subjects were each divided into three treatment groups. […]
Samples of microbiotas from skin with atopic dermatitis were subjected to sequence analyses to identify the various genera present on the skin and to measure relative abundances. In a first sequencing round, read lengths of 150-800 bp were obtained using the Closed OTU picking method. […] The second sequencing round yielded read lengths of 250-600 bp using the Cosed OTU picking method. […] The third sequencing round involved read lengths of 250-600 bp being obtained using the Cosed OTU picking method. […]
A study was conducted of the effect on skin microbiota of single washes or four-week wash periods of either a 0.5% zinc pyrithione body wash, a vehicle body wash, or a B7U bar soap wash. The relative abundances of 11 identified bacterial genera were monitored, along with a category of unclassified microbes. […]

skin microbiota [3] = details: atopic dermatitis lesion area, baseline vs four weeks of daily washes
Procedure: The effect of zinc pyrithione body wash on skin microbiota of subjects with atopic dermatitis with lesions was assessed using a standard leg wash assay. Subjects completed a 4-week period of daily leg washes with zinc pyrithione (BCP2ZPT), a B7U bar soap, or a vehicle control (BCP2). Samples were collected at baseline (study onset) and after 4 weeks of leg washings.
Another study was conducted to specifically assess the effect of a zinc ionophore, i.e., zinc pyrithione, on the skin microbiota diversity of atopic dermatitis lesions using standard body wash protocol well-known in the art. The washes were carried out on a daily basis over a four-week period and 16S rDNA sequencing was used to identify bacterial genera while qPCR amplification was used to quantify the abundance of the genera. Measurements were taken at baseline and after the four-week wash period. Controls involved subjects washing with B7U bar soap or the BCP2 vehicle alone. […]

skin microbiota [4] = experiment: Four-week daily wash of atopic dermatitis without lesions, 16S rDNA sequencing and qPCR (FIG. 6); assay type: in vivo, human; details: baseline vs four weeks of daily washing, p=0.027, FDR>0.05
Procedure: A study mirroring the study described in the brief description of FIG. 5 was conducted with subjects having atopic dermatitis without lesions substituted for subjects with atopic dermatitis with lesions. The relative abundance of Staphylococcus was measured using 16S rDNA sequencing and qPCR quantification. Subjects performed the standard leg wash using B7U bar soap, vehicle only (BCP2), or zinc pyrithione in BCP2 vehicle (BCP2ZPT). Samples were taken at the onset of the study to establish a baseline and after four weeks of leg washings.
A related experiment assessing the treatment effects of a zinc ionophore on skin microbiota diversity in subjects with atopic dermatitis without lesions was performed to assess the effects of the therapeutic in this context. The experimental design involved daily body washes of subjects with atopic dermatitis lacking visible lesions over a four-week period, with subjects engaging in daily washing with either B7U bar soap, vehicle alone (BCP2 base), or BCP2ZPT (which included 0.5% zinc pyrithione). Skin samples were again analyzed for microbiota composition by 16S rDNA sequencing with qPCR to quantify the abundances of the bacterial genera in the skin microbiotas.

[O-]n1ccccc1=S.[O-]n1ccccc1=S.[Zn+2] [zinc pyrithione, zinc salt of 1-hydroxy-2-pyridinethione]
total bacterial level (skin microbiota [1]): lowers | relative abundance of Staphylococcus (skin microbiota [2]; atopic dermatitis patients not exhibiting lesions): selectively reduces | relative abundance of Staphylococcus (skin microbiota [2]; subjects with atopic dermatitis lesions): selectively reduces | abundance of Kocuria (skin microbiota [3]): increased | abundance of Staphylococcus (skin microbiota [4]): significantly reduced; also recorded: selective reduction
